# Key:
# Type in all cases: cell-based
# [1] = test system: Proteus vulgaris; assay: MIC against Gram-negative bacteria: Proteus vulgaris; settings: 5×10^5 CFU/mL
# Summary of the method: (§1)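 Growth inhibition by human EGF domain proteins was scored in LB liquid culture seeded at 5×10^5 CFU/mL. Protein was applied as a two-fold dilution series in triplicate, with shaking incubation at 37° C; MIC is the lowest concentration giving no growth.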
# [2] = test system: Moraxella catarrhalis; assay: MIC against Gram-negative bacteria: Moraxella catarrhalis; settings: 5×10^5 CFU/mL
# Summary of the method: as §1
# [3] = test system: E. coli BL21; assay: MIC against Gram-negative bacteria: E. coli BL21; settings: 5×10^5 CFU/mL
# Summary of the method: as §1
# [4] = test system: E. coli DH5α; assay: Antibacterial activity: MIC and growth curve against E. coli DH5α in 96-well plate; settings: minimal inhibitory concentration against E. coli DH5α; 96-well plate, 5×10^5 CFU/mL, 37° C., judged after 8 h
# Summary of the method: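 MIC taken as lowest protein level with no bacterial growth, tracked by A600 every 30 min during 37 °C, 175 rpm culture. Two-fold protein series 50-12.5 μg/mL final, triplicate wells, against 5×10^5 CFU/mL of LB-washed mid-log cells.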
# [5] = test system: Serratia marcescens; assay: MIC against Gram-negative bacteria: Serratia marcescens; settings: 5×10^5 CFU/mL
# Summary of the method: as §1
# [6] = test system: Enterobacter cloacae; assay: MIC against Gram-negative bacteria: Enterobacter cloacae; settings: 5×10^5 CFU/mL
# Summary of the method: as §1
# [7] = test system: Aeromonas hydrophila; assay: MIC against Gram-negative bacteria: Aeromonas hydrophila; settings: 5×10^5 CFU/mL
# Summary of the method: as §1
# [8] = test system: Proteus mirabilis; assay: MIC against Gram-negative bacteria: Proteus mirabilis; settings: 5×10^5 CFU/mL
# Summary of the method: as §1
# [9] = test system: Citrobacter diversus; assay: MIC against Gram-negative bacteria: Citrobacter diversus; settings: 5×10^5 CFU/mL
# Summary of the method: as §1
# [10] = test system: Pseudomonas aeruginosa; assay: MIC against Gram-negative bacteria: Pseudomonas aeruginosa; settings: 5×10^5 CFU/mL
# Summary of the method: as §1
# [11] = test system: Klebsiella pneumonia; assay: MIC against Gram-negative bacteria: Klebsiella pneumonia; settings: 5×10^5 CFU/mL
# Summary of the method: as §1
# [12] = Proteus vulgaris, 10 h cultivation at 37° C.
# [13] = Moraxella catarrhalis, 10 h cultivation at 37° C.
# [14] = E. coli BL21, 10 h cultivation at 37° C.
# [15] = Serratia marcescens, 10 h cultivation at 37° C.
# [16] = Enterobacter cloacae, 10 h cultivation at 37° C.
# [17] = Aeromonas hydrophila, 10 h cultivation at 37° C.
# [18] = Proteus mirabilis, 10 h cultivation at 37° C.
# [19] = Citrobacter diversus, 10 h cultivation at 37° C.
# [20] = Pseudomonas aeruginosa, 10 h cultivation at 37° C.
# [21] = Klebsiella pneumonia, 10 h cultivation at 37° C.
# [22] = P. vulgaris, 10 h cultivation at 37° C.
# [23] = M. catarrhalis, 10 h cultivation at 37° C.
# [24] = S. marcescens, 10 h cultivation at 37° C.
# [25] = E. cloacae, 10 h cultivation at 37° C.
# [26] = A. hydrophila, 10 h cultivation at 37° C.
# [27] = P. mirabilis, 10 h cultivation at 37° C.
# [28] = C. diversus, 10 h cultivation at 37° C.
# [29] = P. aeruginosa, 10 h cultivation at 37° C.
# [30] = K. pneumonia, 10 h cultivation at 37° C.
# [31] = 10 h cultivation at 37° C., two-fold serial dilution
substance,measurement,setting,value
PRT28 (VDACLLNPCQNQGSCRHLPGAPHGYTCDCVGGYFGHHCE; listed as Homo sapiens),MIC (μg/mL) P. vulgaris,"[1]; Proteus vulgaris, 96-well plate, 37° C., 10 h",25 µg/mL
same,MIC (μg/mL) M. catarrhalis,"[2]; Moraxella catarrhalis, 96-well plate, 37° C., 10 h",50 µg/mL
same,MIC (μg/mL) E. coli BL21,"[3]; E. coli BL21, 96-well plate, 37° C., 10 h",25 µg/mL
same,MIC,[4],50 µg/mL
same,MIC (μg/mL) S. marcescens,"[5]; Serratia marcescens, 96-well plate, 37° C., 10 h",50 µg/mL
same,MIC (μg/mL) E. cloacae,"[6]; Enterobacter cloacae, 96-well plate, 37° C., 10 h",25 µg/mL
same,MIC (μg/mL) A. hydrophila,"[7]; Aeromonas hydrophila, 96-well plate, 37° C., 10 h",12.5 µg/mL
same,MIC (μg/mL) P. mirabilis,"[8]; Proteus mirabilis, 96-well plate, 37° C., 10 h",12.5 µg/mL
same,MIC (μg/mL) C. diversus,"[9]; Citrobacter diversus, 96-well plate, 37° C., 10 h",25 µg/mL
same,MIC (μg/mL) P. aeruginosa,"[10]; Pseudomonas aeruginosa, 96-well plate, 37° C., 10 h",12.5 µg/mL
same,MIC (μg/mL) K. pneumonia,"[11]; Klebsiella pneumonia, 96-well plate, 37° C., 10 h",50 µg/mL
PRT535 (CQCDIGGALSSMCSGPSGVCQCREHVVGKVCQRPENNYYFPDLHH; listed as Homo sapiens),MIC against P. vulgaris,"[1]; 96-well plate, 37° C., 10 h",12.5 µg/mL
same,MIC against M. catarrhalis,"[2]; 96-well plate, 37° C., 10 h",12.5 µg/mL
same,MIC against E. coli BL21,"[3]; 96-well plate, 37° C., 10 h",25 µg/mL
same,MIC,[4],12.5 µg/mL
same,MIC against S. marcescens,"[5]; 96-well plate, 37° C., 10 h",50 µg/mL
same,MIC against E. cloacae,"[6]; 96-well plate, 37° C., 10 h",50 µg/mL
same,MIC against A. hydrophila,"[7]; 96-well plate, 37° C., 10 h",12.5 µg/mL
same,MIC against P. mirabilis,"[8]; 96-well plate, 37° C., 10 h",50 µg/mL
same,MIC against C. diversus,"[9]; 96-well plate, 37° C., 10 h",50 µg/mL
same,MIC against P. aeruginosa,"[10]; 96-well plate, 37° C., 10 h",50 µg/mL
same,MIC against K. pneumonia,"[11]; 96-well plate, 37° C., 10 h",12.5 µg/mL
PRT1401 (VCHPRCIEHGTCKDGKCECREGWNGEHCT; listed as Homo sapiens),MIC against P. vulgaris,[1]; [12],25 µg/mL
same,MIC against M. catarrhalis,[2]; [13],25 µg/mL
same,MIC against E. coli BL21,[3]; [14],25 µg/mL
same,MIC,[4],12.5 µg/mL
same,MIC against S. marcescens,[5]; [15],12.5 µg/mL
same,MIC against E. cloacae,[6]; [16],12.5 µg/mL
same,MIC against A. hydrophila,[7]; [17],25 µg/mL
same,MIC against P. mirabilis,[8]; [18],12.5 µg/mL
same,MIC against C. diversus,[9]; [19],12.5 µg/mL
same,MIC against P. aeruginosa,[10]; [20],12.5 µg/mL
same,MIC against K. pneumonia,[11]; [21],25 µg/mL
PRT1466 (CSCHTTGAVNHICNSLTGQCVCQDASIAGQRCDQCKDHYFGFDPQTGRCQP; listed as Homo sapiens),MIC against P. vulgaris,[1]; [12],12.5 µg/mL
same,MIC against M. catarrhalis,[2]; [13],50 µg/mL
same,MIC against E. coli BL21,[3]; [14],25 µg/mL
same,MIC,[4],50 µg/mL
same,MIC against S. marcescens,[5]; [15],25 µg/mL
same,MIC against E. cloacae,[6]; [16],12.5 µg/mL
same,MIC against A. hydrophila,[7]; [17],50 µg/mL
same,MIC against P. mirabilis,[8]; [18],25 µg/mL
same,MIC against C. diversus,[9]; [19],12.5 µg/mL
same,MIC against P. aeruginosa,[10]; [20],12.5 µg/mL
same,MIC against K. pneumonia,[11]; [21],50 µg/mL
PRT247 (GAAICQPPCRNGGSCVQPGRCRCPAGWRGDTCQ; listed as Homo sapiens),MIC (μg/mL) P. vulgaris,[1]; [22],12.5 µg/mL
same,MIC (μg/mL) M. catarrhalis,[2]; [23],100 µg/mL
same,MIC (μg/mL) E. coli BL21,[3]; [14],12.5 µg/mL
same,MIC,[4],12.5 µg/mL
same,MIC (μg/mL) S. marcescens,[5]; [24],25 µg/mL
same,MIC (μg/mL) E. cloacae,[6]; [25],25 µg/mL
same,MIC (μg/mL) A. hydrophila,[7]; [26],12.5 µg/mL
same,MIC (μg/mL) P. mirabilis,[8]; [27],25 µg/mL
same,MIC (μg/mL) C. diversus,[9]; [28],25 µg/mL
same,MIC (μg/mL) P. aeruginosa,[10]; [29],12.5 µg/mL
same,MIC (μg/mL) K. pneumonia,[11]; [30],12.5 µg/mL
PRT1078 (GTNKCRVNNGGCSSLCLATPGSRQCACAEDQVLDADGVTCL; listed as Homo sapiens),MIC P. vulgaris,[1]; [31],50 µg/mL
same,MIC M. catarrhalis,[2]; [31],50 µg/mL
same,MIC E. coli BL21,[3]; [31],50 µg/mL
same,MIC,[4],25 µg/mL
same,MIC S. marcescens,[5]; [31],12.5 µg/mL
same,MIC E. cloacae,[6]; [31],25 µg/mL
same,MIC A. hydrophila,[7]; [31],50 µg/mL
same,MIC P. mirabilis,[8]; [31],12.5 µg/mL
same,MIC C. diversus,[9]; [31],12.5 µg/mL
same,MIC P. aeruginosa,[10]; [31],25 µg/mL
same,MIC K. pneumonia,[11]; [31],12.5 µg/mL
PRT751 (LCATGDHDCEQVCISSPGSYTCACHEGFTLNSDGKTCN; listed as Homo sapiens),MIC (μg/mL) P. vulgaris,[1]; [22],25 µg/mL
same,MIC (μg/mL) M. catarrhalis,[2]; [23],25 µg/mL
same,MIC (μg/mL) E. coli BL21,[3]; [14],25 µg/mL
same,MIC,[4],12.5 µg/mL
same,MIC (μg/mL) S. marcescens,[5]; [24],12.5 µg/mL
same,MIC (μg/mL) E. cloacae,[6]; [25],50 µg/mL
same,MIC (μg/mL) A. hydrophila,[7]; [26],25 µg/mL
same,MIC (μg/mL) P. mirabilis,[8]; [27],50 µg/mL
same,MIC (μg/mL) C. diversus,[9]; [28],12.5 µg/mL
same,MIC (μg/mL) P. aeruginosa,[10]; [29],50 µg/mL
same,MIC (μg/mL) K. pneumonia,[11]; [30],12.5 µg/mL
